What is called IC50 is the concentration that gives 50% inhibition. One may read the amount remaining as the share of the starting amount still present when the sample was taken.

One data set concerns the target T1, human FPR1 (Homo sapiens, UniProt P21462).
T1 sequence (P21462 1-350): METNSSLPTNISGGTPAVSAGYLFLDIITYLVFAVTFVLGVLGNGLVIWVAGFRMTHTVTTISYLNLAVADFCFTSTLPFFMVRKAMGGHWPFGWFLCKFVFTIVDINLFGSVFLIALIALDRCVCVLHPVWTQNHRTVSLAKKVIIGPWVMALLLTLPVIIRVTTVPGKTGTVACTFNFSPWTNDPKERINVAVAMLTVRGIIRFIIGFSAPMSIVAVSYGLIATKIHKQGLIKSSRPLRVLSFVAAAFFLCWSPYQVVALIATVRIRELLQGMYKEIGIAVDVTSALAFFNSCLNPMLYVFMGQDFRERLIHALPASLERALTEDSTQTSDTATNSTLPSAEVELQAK
As to the kind of experiment: Antagonist effect on Ca2+ mobilization in FPR1-HL60 transfected cells. The settings on record: inhibition of Ca2+ mobilization induced by 5 nM fMLF, N.A. = Not Active; for IC50: read-out: FPR1-HL60 (IC50). (A change in cytosolic calcium serves as a functional read-out for many receptors and channels.)

The nature of the next data set: in vitro. The following applies: rat, pH 7.4.

As for `CCCCCCc1cc2c(=O)c(-c3cccc(OC)c3)c(C(F)(F)F)oc2cc1OC(C)=O` [Compound 25b, 6-Hexyl-3-(3-methoxyphenyl)-4-oxo-2-(trifluoromethyl)-4H-chromen-7-yl acetate], at human FPR1, the IC50 came out at 160 ± 30 nM.

As for `CCCc1cc2c(=O)c(-c3cccc(OC)c3)c(C)oc2cc1OC(C)=O` [Compound 26b, 3-(3-Methoxyphenyl)-2-methyl-4-oxo-6-propyl-4H-chromen-7-yl acetate], the IC50 on human FPR1 was 150 ± 50 nM. Same read-out and setting: for `CCCCc1cc2c(=O)c(-c3ccccc3OC)c(C)oc2cc1OC(C)=O` [Compound 28, 6-Butyl-3-(2-methoxyphenyl)-2-methyl-4-oxo-4H-chromen-7-yl acetate] the value was 800 ± 300 nM; for `CCCCCc1cc2c(=O)c(-c3ccccc3OC)c(C)oc2cc1OC(C)=O` [Compound 29, 3-(2-Methoxyphenyl)-2-methyl-4-oxo-6-pentyl-4H-chromen-7-yl acetate], 400 ± 100 nM. For the molecule `CCCCCCc1cc2c(=O)c(-c3ccccc3OC)c(C)oc2cc1OCC(F)F` [Compound 30, 7-(2,2-Difluoroethoxy)-6-hexyl-3-(2-methoxyphenyl)-2-methyl-4H-chromen-4-one], the amount remaining at 0.5 h, 10 µM in the data set “in vitro” (rat liver microsomes) worked out at 18%. On the same count and under the same terms, for `CCCCCCc1cc2c(=O)c(-c3ccccc3OC)c(C)oc2cc1NC(C)=O` [Compound 35a, N-[6-Hexyl-3-(2-methoxyphenyl)-2-methyl-4-oxo-4H-chromen-7-yl]acetamide] the value was 14%; for `CCCc1cc2c(=O)c(-c3ccccc3OC)c(C)oc2cc1NC(C)=O` [Compound 36, N-[3-(2-methoxyphenyl)-2-methyl-4-oxo-6-propyl-4H-chromen-7-yl]acetamide], 15%. With `CCCCCCC(=O)Oc1cc2oc(C)c(-c3cccc(OC)c3)c(=O)c2cc1C` [Compound 37b, 3-(3-Methoxyphenyl)-2,6-dimethyl-4-oxo-4H-chromen-7-yl heptanoate], the IC50 on human FPR1 turned out to be 21900 ± 6500 nM.

In the data set “in vitro” (Liver), `CCCc1cc2c(=O)c(-c3ccccc3OC)c(C)oc2cc1OC(=O)N(C)C` [Compound 39, 3-(2-Methoxyphenyl)-2-methyl-4-oxo-6-propyl-4H-chromen-7-yl dimethylcarbamate] had a share remaining at 0.5 h, 10 µM of 10%. On human FPR1, the “FPR1-HL60 (IC50, μM)” value was “practically inactive” and the half-inhibitory concentration (IC50) was 28900 ± 7600 nM.

The values are drawn from publication PMC10822168, “Development of potent isoflavone-based formyl peptide receptor 1 (FPR1) antagonists and their effects in gastric cancer cell models” (European journal of medicinal chemistry, 2023).
